The results in this text go back to patent publication US20050014806A1, “Substituted isoxazoles and their use as antibiotics” (priority 2001, published 2005).

Type in all cases: cell-based
Experiment [1] deals with Streptococcus faecalis (BCM-010). Nature of the experiment: MIC by microdilution in microtiter plate, BCM-010. As to conditions: incubation 24 h at 35° C.; for MIC: Enterococcus faecalis. The protocol:
(§1) In order to assess the antimicrobial activity of the compounds of the present invention a method of microdilution in microtiter plate was used. The compounds were diluted in a nutritious medium and, subsequently, distributed by two-fold serial dilutions in 96 well plates. Then, plates were inoculated with a bacterial suspension. After incubation for 24 h at 35° C. the minimum inhibitory concentration (MIC) of the drug in […] was determined as the lowest concentration of compound which inhibits the growth of the bacterium. Results included in Table 1 illustrate the antimicrobial activity of some of the compounds of the present invention in comparison with thus obtained with two compounds (linezolid and eperezolid) of a known antimicrobial activity. The antimicrobial activity of the compound versus Streptococcus faecalis (BCM-010, strain designation as for SALVAT collection) Staphylococcus aureus (BCM-012, strain designation as for SALVAT collection) and Moraxella catarrhalis (BCM-015, strain designation as for SALVAT collection), respectively, is shown in the different columns.
(Dilution methods test growth across graded concentrations, often in twofold steps.)

In experiment [2] the test system is Staphylococcus aureus (BCM-012). Nature of the experiment: MIC by microdilution in microtiter plate, BCM-012. The following applies: incubation 24 h at 35° C. The protocol:
as §1

The subject of experiment [3] is Moraxella catarrhalis (BCM-015). The experiment in a line: MIC by microdilution in microtiter plate, BCM-015. As to conditions: incubation 24 h at 35° C. The protocol:
as §1

In brackets after ≈: the same amount, converted by molar mass.

Turning to “1-(2-fluoro-4-{5-[(3-methylisotiazol-5-ylamino)-methyl]isoxazol-3-yl}phenyl)-1H-imidazol-4-carboxaldehyde [Example 33]”, in experiment [1], the “BCM-010 MIC” value was 2 µg/mL. For the same compound, the “BCM-012 MIC” value in experiment [2] amounted to 0.5 µg/mL. For the same compound, the “BCM-015 MIC” value in experiment [3] was 4 µg/mL.
In general, MIC refers to the smallest concentration in the dilution series that meets the test's criterion for growth inhibition. The low end stands for greater potency, the high end for weaker potency. Consider `CC(=O)NC[C@H]1CN(c2ccc(N3CCN(C(=O)CO)CC3)c(F)c2)C(=O)O1` [Eperezolid, eperezolid, reference compound], for which the MIC in experiment [1] worked out at 4 µg/mL (≈ 10.1 µM); in experiment [2], 2 µg/mL (≈ 5.07 µM); in experiment [3] it was 8 µg/mL (≈ 20.3 µM).
For `O=C(CO)N1CCN(c2ccc(-c3cc(CNc4ccon4)on3)cc2F)CC1` [Example 1, 3-[3-fluoro-4-(hydroxyacetyl)piperazin-1-ylyhenyl]-5-(isoxazol-3-ylaminomethyl)isoxazole], in that order: 4 µg/mL (≈ 9.97 µM), 2 µg/mL (≈ 4.98 µM) and 8 µg/mL (≈ 19.9 µM).
`Fc1cc(-c2cc(CNc3ccon3)on2)ccc1-n1ccnc1` [Example 2, 3-(3-fluoro-4-imidazol-1-ylphenyl)-5-(isoxazol-3-ylaminomethyl)isoxazole]: the MIC in experiment [1] was 4 µg/mL (≈ 12.3 µM); in experiment [2] it was 2 µg/mL (≈ 6.15 µM).
The matching figures for `O=C(c1ccno1)N1CCN(c2ccc(-c3cc(CNc4ccon4)on3)cc2F)CC1` [Example 3]: 4 µg/mL (≈ 9.12 µM) and 2 µg/mL (≈ 4.56 µM).
Take `O=Cc1ccn(-c2ccc(-c3cc(CNc4ccon4)on3)cc2F)c1` [Example 5]: the figures for the MIC in experiment [1], in experiment [2] and in experiment [3] were 1 µg/mL (≈ 2.84 µM), 1 µg/mL (≈ 2.84 µM) and 8 µg/mL (≈ 22.7 µM), respectively.
For `O=C(Cn1cccn1)N1CCN(c2ccc(-c3cc(CNc4ccon4)on3)cc2F)CC1` [Example 6], the MIC was 4 µg/mL (≈ 8.86 µM) in experiment [1], 2 µg/mL (≈ 4.43 µM) in experiment [2] and > 16 µg/mL in experiment [3].
As for `O=C(COc1ccccc1)N1CCN(c2ccc(-c3cc(CNc4ccon4)on3)cc2F)CC1` [Example 7, 1-(4-{2-fluoro-4-[5-(isoxazol-3-ylaminomethyl)-isoxazol-3-yl]-phenyl}piperazin-1-yl)-2-phenoxyethanone], the minimal inhibitory concentration (MIC) is 4 µg/mL (≈ 8.38 µM) in experiment [1] and 2 µg/mL (≈ 4.19 µM) in experiment [2].
The matching figures for `O=C(Cn1cncn1)N1CCN(c2ccc(-c3cc(CNc4ccon4)on3)cc2F)CC1` [Example 8, 3-[3-fluoro-4-(4-(1,2,4-triazol-1-yl)acetyl)piperazin-1-ylphenyl]-5-(isoxazol-3-ylaminomethyl)isoxazole]: 4 µg/mL (≈ 8.84 µM) and 2 µg/mL (≈ 4.42 µM).
As to `O=C(c1cccnc1)N1CCN(c2ccc(-c3cc(CNc4ccon4)on3)cc2F)CC1` [Example 9, 3-[3-fluoro-4-(3-pyridylcarbonyl)piperazin-1-ylphenyl]-5-(isoxazol-3-ylaminomethyl)isoxazole], the MIC was 4 µg/mL (≈ 8.92 µM) in experiment [1], 2 µg/mL (≈ 4.46 µM) in experiment [2] and > 16 µg/mL in experiment [3].
For `O=C(Cn1cccc1)N1CCN(c2ccc(-c3cc(CNc4ccon4)on3)cc2F)CC1` [Example 10, 3-[3-fluoro-4-(4-(1-pyrrolyl)acetyl)piperazin-1-ylphenyl]-5-(isoxazol-3-ylaminomethyl)isoxazole], in that order: 4 µg/mL (≈ 8.88 µM), 2 µg/mL (≈ 4.44 µM) and > 16 µg/mL.
Consider `O=C(COc1cccnc1)N1CCN(c2ccc(-c3cc(CNc4ccon4)on3)cc2F)CC1` [Example 11, 3-[3-fluoro-4-(3-pyridyloxyacetyl)piperazin-1-ylphenyl]-5-(isoxazol-3-ylaminomethyl)isoxazole], for which the values for the MIC in experiment [1] and in experiment [2] were 4 µg/mL (≈ 8.36 µM) and 2 µg/mL (≈ 4.18 µM), respectively.
In the case of `O=C(COc1ccccn1)N1CCN(c2ccc(-c3cc(CNc4ccon4)on3)cc2F)CC1` [Example 12, 3-[3-fluoro-4-(2-pyridyloxyacetyl)piperazin-1-ylphenyl]-5-(isoxazol-3-ylaminomethyl)isoxazole], the MIC in experiment [1] and in experiment [2] was 2 µg/mL (≈ 4.18 µM) each time.
In the case of `O=C(COc1cccc([N+](=O)[O-])c1)N1CCN(c2ccc(-c3cc(CNc4ccon4)on3)cc2F)CC1` [Example 13, 3-[3-fluoro-4-(3-nitrophenyloxyacetyl)piperazin-1-ylphenyl]-5-(isoxazol-3-ylaminomethyl)isoxazole], the MIC in experiment [1] is 2 µg/mL (≈ 3.83 µM); in experiment [2], 1 µg/mL (≈ 1.91 µM).
For `O=C(COc1ccc([N+](=O)[O-])cc1)N1CCN(c2ccc(-c3cc(CNc4ccon4)on3)cc2F)CC1` [Example 14, 3-[3-fluoro-4-(4-nitrophenyloxyaetyl)piperazin-1-ylphenyl]-5-(isoxazol-3-ylaminomethyl)isoxazole], the minimum inhibitory concentration (MIC) in experiment [1] stood at 2 µg/mL (≈ 3.83 µM); in experiment [2] it was 1 µg/mL (≈ 1.91 µM).
For `O=C(COCc1ccco1)N1CCN(c2ccc(-c3cc(CNc4ccon4)on3)cc2F)CC1` [Example 15, 3-[3-fluoro-4-(2-furylmethoxyacetyl)piperazin-1-ylphenyl]-5-(isoxazol-3-ylaminomethyl)isoxazole], in that order: 4 µg/mL (≈ 8.31 µM) and 2 µg/mL (≈ 4.15 µM).
The matching figures for `O=C(COCc1ccccn1)N1CCN(c2ccc(-c3cc(CNc4ccon4)on3)cc2F)CC1` [Example 16, 3-[3-fluoro-4-(2-pyridylmethoxyacetyl)piperazin-1-ylphenyl]-5-(isoxazol-3-ylaminomethyl)isoxazole]: 4 µg/mL (≈ 8.12 µM) and 2 µg/mL (≈ 4.06 µM).
The matching figures for `N#Cc1ccc(OCC(=O)N2CCN(c3ccc(-c4cc(CNc5ccon5)on4)cc3F)CC2)cc1` [Example 17, 3-[3-fluoro-4-(4-cyanophenoxyacetyl)piperazin-1-ylphenyl]-5-(isoxazol-3-ylaminomethyl)isoxazole]: 2 µg/mL (≈ 3.98 µM) and 2 µg/mL (≈ 3.98 µM).
Turning to `C#CCOCC(=O)N1CCN(c2ccc(-c3cc(CNc4ccon4)on3)cc2F)CC1` [Example 18, 3-[3-fluoro-4-(3-propyn-1-yloxyacetyl)piperazin-1-ylphenyl]-5-(isoxazol-3-ylaminomethyl)isoxazole], the minimum inhibitory concentration (MIC) in experiment [1] stood at 4 µg/mL (≈ 9.1 µM); in experiment [2], 2 µg/mL (≈ 4.55 µM).
`O=Cc1ccc(OCC(=O)N2CCN(c3ccc(-c4cc(CNc5ccon5)on4)cc3F)CC2)cc1` [Example 19, 3-[3-fluoro-4-(4-formylphenyloxyacetyl)piperazin-1-ylphenyl]-5-(isoxazol-3-ylaminomethyl)isoxazole]: the results for the MIC in experiment [1] and in experiment [2] were 0.5 µg/mL (≈ 0.989 µM) and 1 µg/mL (≈ 1.98 µM), respectively.
With `O=C(COc1ccc2ncccc2c1)N1CCN(c2ccc(-c3cc(CNc4ccon4)on3)cc2F)CC1` [Example 22, 1-(4-{2-fluoro-4-[5-(isoxazol-3-ylaminomethyl)-isoxazol-3-yl]-phenyl}piperazin-1-yl)-2(quinolin-6-yloxy)ethanone], the MIC in experiment [1] is 1 µg/mL (≈ 1.89 µM); in experiment [2], 0.5 µg/mL (≈ 0.946 µM); in experiment [3] it was 4 µg/mL (≈ 7.57 µM).
The matching figures for `OCc1ccn(-c2ccc(-c3cc(CNc4ccon4)on3)cc2F)c1` [Example 23, (1-{2-fluoro-4-[5-(isoxazol-3-ylaminomethyl)-isoxazol-3-yl]phenyl}-1H-pyrrol-3-yl)methanol]: 1 µg/mL (≈ 2.82 µM), 0.5 µg/mL (≈ 1.41 µM) and 4 µg/mL (≈ 11.3 µM).
For `O/N=C\c1ccn(-c2ccc(-c3cc(CNc4ccon4)on3)cc2F)c1` [Example 24], the MIC in experiment [1] worked out at 0.5 µg/mL (≈ 1.36 µM); in experiment [2], 0.5 µg/mL (≈ 1.36 µM); in experiment [3], 16 µg/mL (≈ 43.6 µM).
As to `N#Cc1ccn(-c2ccc(-c3cc(CNc4ccon4)on3)cc2F)c1` [Example 25], the MIC was determined as 0.5 µg/mL (≈ 1.43 µM) in experiment [1], 0.5 µg/mL (≈ 1.43 µM) in experiment [2] and 16 µg/mL (≈ 45.8 µM) in experiment [3].
Regarding `O=Cc1ccc(OCC(=O)N2CCN(c3c(F)cc(-c4cc(CNc5ccon5)on4)cc3F)CC2)cc1` [Example 26, 4-[2-(4-{2,6-difluoro-4-[5-(isoxazol-3-ylaminomethyl)isoxazol-3-yl]phenyl}piperazin-1-yl)-2-oxoethoxy]benzaldehyde], the results for the MIC in experiment [1], in experiment [2] and in experiment [3] were 1 µg/mL (≈ 1.91 µM), 0.5 µg/mL (≈ 0.955 µM) and 4 µg/mL (≈ 7.64 µM), respectively.
The matching figures for `O=Cc1cn(-c2ccc(-c3cc(CNc4ccon4)on3)cc2F)cn1` [Example 27, 1-{2-fluoro-4-[5-(isoxazol-3-ylaminomethyl)isoxazol-3-yl]phenyl}-1H-imidazol-4-carboxaldehyde]: 2 µg/mL (≈ 5.66 µM), 0.5 µg/mL (≈ 1.42 µM) and 4 µg/mL (≈ 11.3 µM).
For `COc1ccccc1NCc1cn(-c2ccc(-c3cc(CNc4ccon4)on3)cc2F)cn1` [Example 29, [3-(3-fluoro-4-{4-[(2-methoxiphenylamino)-methyl]imidazol-1-yl}phenyl)isoxazol-5-ylmethyl]isoxazol-3-ylamine], in that order: 1 µg/mL (≈ 2.17 µM), 0.5 µg/mL (≈ 1.09 µM) and 4 µg/mL (≈ 8.69 µM).
For `Cc1ccccc1NCc1ccn(-c2ccc(-c3cc(CNc4ccon4)on3)cc2F)c1` [Example 30, (3-{3-fluoro-4-[3-(o-tolylaminomethyl)pyrrol-1-yl]phenyl}isoxazol-5-ylmethyl)isoxazol-3-ylamine], the MIC in experiment [1] came out at 1 µg/mL (≈ 2.25 µM); in experiment [2] it was 0.5 µg/mL (≈ 1.13 µM); in experiment [3], 16 µg/mL (≈ 36.1 µM).
Consider `O=C(COc1ccc(/C=N\O)cc1)N1CCN(c2c(F)cc(-c3cc(CNc4ccon4)on3)cc2F)CC1` [Example 31, 4-[2-(4-{2,6-difluoro-4-[5-(isoxazol-3]aminomethyl)isoxazol-3-yl-penyl}-piperazin-1-yl)2-oxoethoxy]-benzaldoxime], for which the results for the MIC in experiment [1] and in experiment [2] were 1 µg/mL (≈ 1.86 µM) and 0.5 µg/mL (≈ 0.928 µM), respectively.
For `Cc1cc(NCc2cc(-c3ccc(-n4ccnc4)c(F)c3)no2)sn1` [Example 32, [3-(3-fluoro-4-imidazol-1-ylphenyl)isoxazol-5-ylmethyl]-(3-methylisotiazol-5-yl)amine], in that order: 1 µg/mL (≈ 2.81 µM) and 1 µg/mL (≈ 2.81 µM).
